Laboratory results published in patent US8507448B2, “Human CD154-binding synthetic peptide and uses thereof” (Fresenius Medical Care Deutschland G.m.b.H., priority 2007, dated 2013).
Positions of bridges follow the written chain, without caps; N, C: chain ends. Residues, ends and D or L forms follow the SMILES beside them. No end group written: not given here.

Key:
[1] = target: T1, human CD154 expressed on the surface of J558L cells (Homo sapiens, UniProt P29965); test: Binding of -His6-tagged peptides to J558L CD154+ cells by flow cytometry; conditions: -His6 peptides 60 μM, 30 minutes at room temperature
T1 construct: expressed in transfected cells; host or cells: J558L murine myeloma cell line transfected with human CD154
T1 sequence (P29965 1-261): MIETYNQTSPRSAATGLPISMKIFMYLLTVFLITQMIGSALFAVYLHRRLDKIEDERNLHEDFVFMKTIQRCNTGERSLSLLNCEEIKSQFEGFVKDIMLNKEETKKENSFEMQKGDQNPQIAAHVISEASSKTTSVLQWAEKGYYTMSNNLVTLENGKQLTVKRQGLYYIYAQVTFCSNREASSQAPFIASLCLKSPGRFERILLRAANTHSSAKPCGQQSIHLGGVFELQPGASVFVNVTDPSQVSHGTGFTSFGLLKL
Experimental: FIG. 2 represents the binding of the seven peptides obtained from the human CD154-binding clones and tagged with a 6 histidines tail (-His6) to the J558L CD154^+ cells. […] The cells were incubated with each of the -His6-tagged peptides and then with a phycoerythrin-conjugated secondary antibody specific for the -His6 tail. The dotted histogram is the isotopic control, whilst the black line is the binding intensity of the CD154-specific peptides [4.2=4.3=CPSGHTKAC (SEQ ID NO: 1), 4.4=CGTHSSRIC (SEQ ID NO: 2), 4.6=CLGTQNKEC (SEQ ID NO: 3), 4.7=4.12=CTPGKPHSC (SEQ ID NO: 4), 4.8=CKAASANIC (SEQ ID NO: 5), 4.10=CLPTRHMAC (SEQ ID NO: 6) and 4.11=CLSAVHNMC (SEQ ID NO: 7)]. For each experimental condition, 10,000 events were analyzed and the values are the mean and standard deviation of 3 different experiments.
(§1) The peptides were synthesized and conjugated with biotin (-bio) or with a 6-histidine tail (-his6) so as to enable in vitro and in vivo localization. […] Furthermore, a competition assay between the peptides and an anti-human CD154 fluorescein-conjugated antibody (Serotec) specifically recognizing the active site of CD154 was carried out. The J558L cells were incubated with the his6-peptides for 30 minutes at room temperature and then with anti-human CD154 fluorescein-conjugated antibody for another 30 minutes at room temperature. […] In order to identify the amino acid residues of the amino acid sequence of peptide 4.10 which are essential to the binding to CD154, three different peptides were synthesized, each one carrying a point mutation, which amino acid sequences differ from that of peptide 4.10 by replacement of the amino acid residues at positions 4, 5, 6, respectively, with one alanine residue.
The mutated peptides were not capable of recognizing human CD154 expressed at the surface of J558L cells (data not shown).
Similar results were obtained with the four modified peptides 4.101, 4.102, 4.103 e 4.104 having the amino acid sequences illustrated in table II.

[2] = system: control J558 cells (CD154-negative); test: Binding to control CD154-negative J558 cells by flow cytometry; design: species or system murine; conditions: -His6 peptides
[3] = target: T2, active site of human CD154 (Homo sapiens, UniProt P29965); test: Competition with anti-human CD154 fluorescein-conjugated antibody on J558L cells; assay type: binding; conditions: -His6 peptides 30 minutes at room temperature, then antibody
T2 construct: expressed in transfected cells; host or cells: J558L murine myeloma cell line transfected with human CD154
T2 sequence (P29965 1-261): T1 sequence (P29965 1-261)
Experimental: The murine myeloma cells transfected with human CD154, J558L, were incubated with each of the seven anti-CD154 peptides tagged with a 6 histidines tail (-His6), and then with the anti-CD154 fluorescein-conjugated antibody. The ability of the peptides to compete with the anti-CD154 antibody for the binding to the CD154 molecule expressed on the surface of the J558L cells was evaluated by flow cytometry, as the reduction in the fluorescence intensity compared to the positive control represented by cells incubated with the anti-human CD154 fluorescein-conjugated antibody alone. […] The amino acid sequence of the control peptide differs from that of peptide 4.10 in that an arginine residue is replaced with an alanine residue at amino acid position 5.
as §1

[4] = system: CD40 stimulation of peripheral B cells by rhsCD154; test: rhsCD154-induced B cell activation (CD80 and CD86 membrane expression); assay type: cell-based, human
Experimental: The histograms of 4A show the effect of the anti-CD154 peptides and the control peptide 4.10-ala, on the activation B cells induced by stimulation with a soluble recombinant human CD154 molecule (rhsCD154). B cells were stimulated for 48 hours with rhsCD154 in the absence and in the presence of a blocking anti-human CD154 antibody or one of the seven selected peptides. Peripheral B cell activation was evaluated by flow cytometry, as the membrane expression of the co-stimulatory molecules CD80 and CD86. […] On the contrary, the activation is prevented when rhsCD154 is used in combination with a blocking anti-human CD154 antibody or with peptide 4.10 (SEQ ID NO: 6).
B cells are known to constitutively express the CD40 molecule on the cells membrane (van Kooten C. et al, J. Leukoc. Biol. 2000). Stimulation of CD40 by CD154-expressing activated T cells, results in B cells activation, proliferation and isotype switching. The inventors employed B cells isolated from whole peripheral blood of healthy donors by gradient-Ficoll centrifugation and immunomagnetical separation (MACS systems—Milteniy). The quiescent B cells thereby obtained, were then stimulated with a soluble form of human recombinant CD154 (rhsCD154) to induce activation and expression of the co-stimulatory molecules CD80 (B7-1) and CD86 (B7-2) on the cell membrane. A drastic increase in membrane expression of CD80 and CD86 on the cell surface of peripheral B cells, after stimulation for 48 hours with rhsCD154 (100 ng/ml) was observed. […] In contrast, pre-incubation for 15 minutes at 37° C. of rhsCD154 (100 ng/ml) with peptide 4.10 (SEQ. ID NO: 6), prior to lymphocyte stimulation, blocked B cells stimulation and the related expression of CD80 and CD86. […] The results are the mean±standard deviation of five different experiments. Similar results were also obtained with B cells isolated from human spleen fragments. […] These experiments were carried out on […] naive B cells, obtained from peripheral blood by negative selection, by depletion of mature lymphocytes from the B cell pool by immunomagnetic separation (MACS Systems Milteniy).

HUVEC = test: In vitro angiogenesis: cell cord formation of HUVECs on Matrigel; assay type: cell-based, human; conditions: pre-incubated with rhsCD154 100 ng/ml for 15 minutes at 37° C.; 4 hours
Excerpt: FIGS. 7B-F show representative images of cell cord formation ability on Matrigel under the various experimental conditions mentioned above (B=unstimulated control; C=rhsCD154; D=rhsCD154+ 4.10 peptide; E=rhsCD154+ 4.10-ala peptide; F=rhsCD154+ blocking anti-CD154 antibody). Peptide 4.10 of the invention (SEQ ID NO: 6), contrary to control peptide 4.10-ala (SEQ ID NO: 8), inhibits the rhsCD154-induced ability of the endothelial cells of forming cell cords.
Furthermore, in order to evaluate the inhibitory effect, rhsCD154 (100 ng/ml) was pre-incubated for 15 minutes at 37° C. with peptide 4.10 (SEQ. ID NO: 6), or with control peptide 4.10-ala (SEQ. ID NO: 8), or with a blocking anti-human CD154 antibody. The flasks were then observed at 10× magnification for a period of 4 hours under a phase contrast inverted microscope equipped with a thermostatic chamber (at about 37° C.). The cells were photographed with a camera connected to the microscope, over the whole length of time of 4 hours at regular intervals of 15 minutes each. The migratory speed of each of the cells was calculated based on the position of the nucleus of each single cell in each single frame, using an image analysis software and, as a result, the average cell migratory speed (1 standard deviation) was calculated for each experimental condition. […] As a further confirmation of the ability of peptide 4.10 to prevent human endothelial CD40 stimulation by rhsCD154 (100 ng/ml), HUVECs (3.5×10^4) were subjected to an in vitro angiogenesis assay. HUVECs were plated on a tumor matrix (Matrigel, BD) capable of promoting the formation of super cellular organization, in a basal RPMI medium supplemented with 5% serum. Upon incubation at 37° C. under 5% CO2 for 4 hours, the cells were observed under a contrast phase inverted microscope.

human platelets = test: Platelet aggregation assay (aggregometer); assay type: cell-based
Experimental: Platelet aggregation was measured with an aggregometer, as the increase in light transmission compared to the control. Priming of human platelets with the anti-human CD154 antibody in combination with rhsCD154 increases platelet aggregation upon stimulation with ADP 0.5 μM.
Finally, one of the major advantages of peptide 4.10 is its lack of reactivity towards human platelets. It is know that in the past, a number of clinical trials carried out to test promising anti-CD154 monoclonal antibodies were suddenly discontinued due to dramatic prothrombotic side effects (Kelsoe G. et al, J. Clin. Invest. 2003). The hypothesis is that the anti-CD154 antibodies had triggered a cross-reaction on the surface of human platelets expressing the receptor for the Fc immunoglobulin fraction (FcR) and, after activation, the CD154 molecule. Thus, the inventors tested the effect of peptide 4.10 on platelets, by a platelet aggregation assay. Such experiments were carried out by the use of a thermostatic aggregometer, equipped with a magnetic stirrer and a real time optical density meter. Platelet aggregation was evaluated as the change in optical density versus the reference sample (blank). The experiments were carried out on platelets extracted from peripheral whole blood of healthy donors collected in tubes containing 5 U/ml heparin. In particular, the platelet enriched plasma (PRP), was obtained by whole blood centrifugation at 900 rpm for 20 minutes, while the platelet poor plasma (PPP), used as the reference sample, was obtained collecting the supernatant after another centrifugation at 3000 rpm for 10 minutes. […] Similar results were obtained inducing platelet aggregation with 0.3 U/ml thrombin.

[5] = peptide 250 μM with rhsCD154 100 ng/ml

Compound | binding to J558L CD154+ cells [1] | binding to control J558 cells [2] | further results
CLSAVHNMC (disulfide 1-9 (inferred)) [peptide 4.11] | capable of specifically binding | not capable of binding | competition with anti-human CD154 fluorescein-conjugated antibody specific for the active site of CD154 [3]: do not specifically bind to the active site; inhibition of rhsCD154-induced B cell activation (CD80 and CD86 expression) ([4]; 250 μM): not stably reproducible; effect on rhsCD154-induced formation of vessel-like cell cords on Matrigel (HUVEC): not capable of significantly reducing the stimulation of endothelial CD40
CLPSRHMAC (binding protein) [4.102, modified form of peptide 4.10] | None of these peptides proved to be capable of binding |  | 
CIPTRHMAC (binding protein) [4.101, modified form of peptide 4.10] | None of these peptides proved to be capable of binding |  | 
CPSGHTKAC (disulfide 1-9 (inferred)) [4.2=4.3] | capable of specifically binding | not capable of binding | 
CSCC[C@@H]1NC(=O)[C@H](Cc2c[nH]cn2)NC(=O)[C@H](CCCNC(=N)N)NC(=O)[C@H]([C@@H](C)O)NC(=O)[C@@H]2CCCN2C(=O)[C@H](CC(C)C)NC(=O)[C@@H](N)CSSC[C@@H](C(=O)O)NC(=O)[C@H](C)NC1=O [peptide 4.10, CLPTRHMAC] (H-CLPTRHMAC-OH; disulfide 1-9) |  |  | platelet aggregation induced by ADP 0.5 μM after priming (human platelets; priming 10 minutes at 37° C., peptide 60 μM with CD154): did not enhance platelet aggregation; activation of human platelet aggregation with thrombin at a subliminal dose (human platelets; thrombin 0.3 U/ml): inactive
CIPTRHMVC (binding protein) [4.103, modified form of peptide 4.10] | None of these peptides proved to be capable of binding |  | 
CTPGKPHSC (disulfide 1-9 (inferred)) [4.7=4.12] | capable of specifically binding | not capable of binding | 
CGTHSSRIC (disulfide 1-9 (inferred)) [4.4] | capable of specifically binding | not capable of binding | 
CLPTRWMAC (binding protein) [4.104, modified form of peptide 4.10] | None of these peptides proved to be capable of binding |  | 
CKAASANIC (disulfide 1-9 (inferred)) [4.8] | capable of specifically binding | not capable of binding | 
CLGTQNKEC (disulfide 1-9 (inferred)) [peptide 4.6] | capable of specifically binding | not capable of binding | competition with anti-human CD154 fluorescein-conjugated antibody specific for the active site of CD154 [3]: do not specifically bind to the active site; expression of CD80 compared to basal levels [4, 5]: 117%; expression of CD86 compared to basal levels [4, 5]: 122%; effect on rhsCD154-induced formation of vessel-like cell cords on Matrigel (HUVEC): not capable of significantly reducing the stimulation of endothelial CD40
